These results are taken from ChEMBL document CHEMBL1154216, “Development of a novel expression, ZI MAX/K ZI, for determination of the counter-anion effect on the antimicrobial activity of tetrabutylammonium salts” (2009).

In test [1] the test system is Staphylococcus epidermidis. The test is classed as functional, ATCC 12228.
Description: Antimicrobial activity against Staphylococcus epidermidis ATCC 12228 assessed as ratio of maximum zone of inhibition to concentration required to reach half maximum zone of inhibition after 24 hrs
A further test relates to Escherichia coli. Description: Antimicrobial activity against Escherichia coli K-12 C600 assessed as ratio of maximum zone of inhibition to concentration required to reach half maximum zone of inhibition after 24 hrs. Format: functional.

Structures are written as SMILES.

For the molecule `CCCC[N+](CCCC)(CCCC)CCCC.Cc1ccc(S(=O)(=O)[O-])cc1`, the ZImax/KZI in test [1] is on record as 8.55 mm microL/micromol; in the test on Escherichia coli, 0 mm microL/micromol.

Consider `CC(O)C(=O)[O-].CCCC[N+](CCCC)(CCCC)CCCC`, for which the ZImax/KZI is recorded as 103.09 mm microL/micromol in test [1] and 0 mm microL/micromol in the test with Escherichia coli.

Turning to `CCCC[N+](CCCC)(CCCC)CCCC.O=[N+]([O-])[O-]` [BIS(TETRABUTYLAMMONIUM)MONONITRATE], the figures for the ZImax/KZI (in test [1]; in the test with Escherichia coli) were 30.67 mm microL/micromol and 0.333 mm microL/micromol, respectively.

Take `Br.Br.CCCC[N+](CCCC)(CCCC)CCCC.[Br-]` [MONO(TETRABUTYLAMMONIUM)TRIBROMIDE]: the ZImax/KZI is reported as 48.08 mm microL/micromol in test [1] and 37.59 mm microL/micromol in the test with Escherichia coli.

For the molecule `CC(=O)[O-].CCCC[N+](CCCC)(CCCC)CCCC` [TETRABUTYLAMMONIUM ACETATE], the ZImax/KZI in test [1] is 37.88 mm microL/micromol; in the test on Escherichia coli, 4.2 mm microL/micromol.

Regarding `CCCC[N+](CCCC)(CCCC)CCCC.O=C([O-])c1ccccc1` [TETRABUTYLAMMONIUM BENZOATE], the ZImax/KZI was found to be 39.81 mm microL/micromol in test [1] and 0.333 mm microL/micromol in the test on Escherichia coli.

For the molecule `CCCC[N+](CCCC)(CCCC)CCCC.[Br-]` [TETRABUTYLAMMONIUM BROMIDE], the ZImax/KZI was found to be 16.69 mm microL/micromol in test [1] and 0.516 mm microL/micromol in the test on Escherichia coli.

As to `CCCC[N+](CCCC)(CCCC)CCCC.O=P([O-])(O)O` [TETRABUTYLAMMONIUM DIHYDROGENPHOSPHATE], the ZImax/KZI amounted to 23.58 mm microL/micromol in test [1] and 0 mm microL/micromol in the test on Escherichia coli.

Consider `CCCC[N+](CCCC)(CCCC)CCCC.[F-]` [TETRABUTYLAMMONIUM FLUORIDE], for which the values for the ZImax/KZI (in test [1]; with Escherichia coli) were 15.82 mm microL/micromol and 0.842 mm microL/micromol, respectively.

Regarding `CCCC[N+](CCCC)(CCCC)CCCC.O=S(=O)([O-])O` [TETRABUTYLAMMONIUM HYDROGENSULFATE], the ZImax/KZI in test [1] was 84.03 mm microL/micromol; in the test on Escherichia coli it was 4.98 mm microL/micromol.

With `CCCC[N+](CCCC)(CCCC)CCCC.[OH-]` [TETRABUTYLAMMONIUM HYDROXIDE], the ZImax/KZI is recorded as 27.17 mm microL/micromol in test [1] and 4.06 mm microL/micromol with Escherichia coli.

`CCCC[N+](CCCC)(CCCC)CCCC.[I-]` [TETRABUTYLAMMONIUM IODIDE]: the values for the ZImax/KZI (in test [1]; with Escherichia coli) were 140.85 mm microL/micromol and 0.381 mm microL/micromol, respectively.

As for `CCCC[N+](CCCC)(CCCC)CCCC.CS(=O)(=O)[O-]` [TETRABUTYLAMMONIUM METHANESULFONATE], the ZImax/KZI in test [1] is listed as 23.53 mm microL/micromol; in the test with Escherichia coli, 0.167 mm microL/micromol.

Regarding `CCCC[N+](CCCC)(CCCC)CCCC.[O-][Cl+3]([O-])([O-])[O-]` [TETRABUTYLAMMONIUM PERCHLORATE], the ZImax/KZI in test [1] turned out to be 14.77 mm microL/micromol; with Escherichia coli it was 0 mm microL/micromol.

Turning to `CCCC[N+](CCCC)(CCCC)CCCC.O=P[O-]` [TETRABUTYLAMMONIUM PHOSPHENITE], the ZImax/KZI in test [1] was 52.08 mm microL/micromol; with Escherichia coli it was 0.408 mm microL/micromol.

On to `CCCC[N+](CCCC)(CCCC)CCCC.F[B-](F)(F)F` [TETRABUTYLAMMONIUM TETRAFLUOROBORATE], for which the results for the ZImax/KZI (in test [1]; in the test on Escherichia coli) were 25.71 mm microL/micromol and 0.499 mm microL/micromol, respectively.

Turning to `CCCC[N+](CCCC)(CCCC)CCCC.N#C[S-]` [TETRABUTYLAMMONIUM THIOCYANATE], the ZImax/KZI stood at 11.59 mm microL/micromol in test [1] and 6.28 mm microL/micromol with Escherichia coli.

With `CCCC[N+](CCCC)(CCCC)CCCC.O=S(=O)([O-])C(F)(F)F` [TETRABUTYLAMMONIUM TRIFLUOROMETHANESULFONATE], the ZImax/KZI was 64.94 mm microL/micromol in test [1] and 0.067 mm microL/micromol with Escherichia coli.

As to `CCCC[N+](CCCC)(CCCC)CCCC.[Cl-]` [TETRABUTYLAMMONIUM], the values for the ZImax/KZI (in test [1]; in the test on Escherichia coli) were 23.58 mm microL/micromol and 0.382 mm microL/micromol, respectively.
